Test results as given in US8895599B2, “Lipoprotein lipase-activating compositions comprising benzene derivates” (Otsuka Pharmaceutical Factory, Inc., priority 2008, dated 2014).

Tests used:
[1] = Therapeutical effect on olive oil-induced triglyceride hyperlipidemia models; format: in vivo; settings: once a day for one week, SD rats, 2 h after olive oil
[2] = Anti-obesity test using Zucker fatty rats; format: in vivo; settings: 100 mg/kg oral, once a day over 4 weeks, relative to control group
Description: Anti-Obesity Test Using Zucker Fatty Rats
Zucker fatty rats are obese rats discovered by Zucker et al., in 1961 as mutants among 13 M rats, which are a hybrid between 13C and M rats. These rats (fa/fa) start to appear distinctly obese from normal broods around the age of 3 weeks. As they age, the weight difference between the fatty rats and normal rats increases. Zucker fatty rats are currently kept by a variety of organizations as simple obesity models, and are readily obtainable.
This test was performed using this rat model to evaluate the anti-obesity action of the compounds of the invention. The preparation method of test samples and the test procedures are described below:
The test samples were prepared in the same manner as in Test Example 2.
Zucker fatty rats and lean rats (both from Charles River Japan) were purchased at the age of 5 weeks. They were divided into groups (10 rats per group) according to body weight when they reached 6 weeks old. After acclimatization, the administration of test samples was initiated when the rats reached 8 weeks old. Test samples were orally administered using an oral gavage so that the compounds of the invention contained in the test samples were given in an amount of 100 mg/kg body weight (test sample dosage: 5 ml/kg body weight). The test samples were administered once a day over 4 weeks at a specific time of day.
As a control, a group of rats were administered with the same amount of 5% aqueous gum arabic solution (5 ml/kg body weight) instead of the test samples.
The rats of all groups were weighed on the last day of administration. The average body weight of the rats of each test group was compared with the average body weight (standard weight) of the rats of the control group to obtain the weight variations (differences). The weight differences were expressed as percentages in relation to the standard weight. The values thus calculated are referred to as “weight change %”. When a weight difference is negative relative to the standard weight, weight change % is shown with “−” (minus).
During the test period, the rats of the respective groups had free access to rat feed (“CRF-1”, manufactured by Oriental Yeast, Co., Ltd.) and water (tap water).

[3] = Anti-obesity test using AKR mice (high-fat feed); format: in vivo; settings: 1 mg per gram of feed in high-fat feed, 7 weeks, AKR/J mice, relative to high-fat feed control group
Description: Anti-Obesity Test Using AKR Mice
Furthermore, this test enables the evaluation of therapeutic effects on diabetes. That is, it is reported that insulinemia can be observed in AKR/J mice when they are fed with a high-fat diet (see Am. J. Physiol. 266 (5 Pt 2), May 1994: R1423-8). It is thus known that insulinemia is strongly associated with diabetes (see, for example, J. Cardiovasc. Nurs. 16 (2), January 2002: 17-23). Therefore, this test can verify the therapeutic effects of the compounds of the present invention, used as test compounds, on diabetes.
For rat feed, powdered CRF-1 (Charles River Formula 1, manufactured by Oriental Yeast, Co., Ltd.) was used as normal feed. As high-fat feed, that prepared by blending CRF-1 with 18% safflower oil (Oriental Yeast, Co., Ltd.) was used.
Test substances were blended with the high-fat feed in an amount of 1 mg per gram of CRF-1.
AKR/J mice (from CLEA Japan, Inc.) were purchased at the age of 4 weeks. They were roughly divided into 2 groups according to body weight when the mice reached 5 weeks old. During this period, all mice were given the normal feed.
Subsequently, the mice of one group (8 mice) continued to be fed with the normal feed (normal feed group). The mice of the other group (8×(the number of the test substances+1) mice) were given the high-fat feed (high-fat feed group).
The body weight of the mice of each group was measured daily. […] These mice were further reared for 7 weeks (“test substances+high-fat feed groups”; n=8 per type of test substance). Specifically, the administration of the test substances was continued for 7 weeks. A group of mice to which high-fat feed containing no test substance was continued to be given was used as a control (high-fat feed control group; n=8).
Four hours after the feeding on the last day of the 7-week test (the last day of the test), the body weight of the mice of the “test substances+high fat feed groups” was measured. Blood was collected from the abdominal aorta of the mice using a heparinized syringe, and the leptin and insulin levels in the plasma were measured using an Elisa kit (produced by Morinaga). The mice of the other groups (normal feed group and high-fat feed control group) were reared till the last day of the test as above, and 4 hours after the last feeding on the last day of the test the measurements were performed according to the same procedures.
The average values of the test results (body weight, leptin level, and insulin level) of the test substances+high-fat feed groups to which the compounds prepared in Examples (Examples 10 and 58) were used as test substances (hereinbelow referred to as the “Example Compound 10-mixed high-fat feed group” and “Example Compound 58-mixed high-fat feed group”) were compared with the respective average values (standard values) of the results obtained from the mice of the high-fat control group to obtain the variations (differences). The differences were expressed as percentages in relation to the standard values. The values thus calculated were referred to as “weight change (%)”, “leptin level change (%)”, and “insulin level change (%)”. In the table below, the symbols “−” (minus) indicate that the differences are negative relative to the standard values.

COc1cc(-c2cn3ccccc3n2)ccc1OCc1ccc(Cl)cc1 [Example 10]
Decrease in plasma triglyceride level (%) ([1]; 10 mg/kg oral): 48% | Decrease in plasma triglyceride level (%) ([1]; 30 mg/kg oral): 67% | Decrease in plasma triglyceride level (%) ([1]; 100 mg/kg oral): 74% | Weight Change (%) [2]: −15% | Weight Change (%) [3]: −15% | Insulin level change (%) ([3]; plasma): −54% | Leptin level change (%) ([3]; plasma): −68% | melting point: 141 to 143 °C
